Reference: patent US20170349550A1, “ACTIVE COMPOUND COMBINATIONS” (BAYER CROPSCIENCE AKTIENGESELLSCHAFT, priority 2014, published 2017)
Several values for one entry are separate records, joined by “and”; a condition that tells them apart may be missing. Equal entries are not always repeated. Where two headings read alike, the source gives them in different places.

Columns and labels:
Alternaria solani = experiment: in vivo preventive test on Alternaria test (tomatoes); settings: 3 days after inoculation
Description: After the spray coating has dried on, the plants are inoculated with an aqueous spore suspension of Alternaria solani.
The test is evaluated 3 days after the inoculation.

[1] = tested on: Blumeria graminis f.sp. hordei; experiment: in vivo preventive Blumeria test (barley); settings: 7 days after inoculation
Fusarium graminearum = type: in vivo; settings: barley, 5 days after inoculation
Leptosphaeria nodorum = experiment: in vivo preventive Leptosphaeria nodorum test (wheat); settings: 8 days after inoculation
Description: After the spray coating has been dried, the plants are sprayed with a spore suspension of Leptosphaeria nodorum. […] The plants are placed in the greenhouse at a temperature of approximately 25° C. and a relative atmospheric humidity of approximately 80%.
(§1) The test is evaluated 8 days after the inoculation.

Septoria tritici = experiment: in vivo preventive Septoria tritici test (wheat); settings: 21 days after inoculation
Description: After the spray coating has been dried, the plants are sprayed with a spore suspension of Septoria tritici. […] The plants are placed in the greenhouse at a temperature of approximately 15° C. and a relative atmospheric humidity of approximately 80%.
The test is evaluated 21 days after the inoculation.

Sphaerotheca fuliginea = experiment: in vivo preventive test on Sphaerotheca test (cucumbers); settings: 7 days after inoculation
Description: After the spray coating has dried on, the plants are inoculated with an aqueous spore suspension of Sphaerotheca fuliginea. The plants are then placed in a greenhouse at approximately 23° C. and a relative atmospheric humidity of approximately 70%.
(§2) The test is evaluated 7 days after the inoculation.

Uromyces appendiculatus = experiment: in vivo preventive test on Uromyces test (beans); settings: 10 days after inoculation
Description: The plants are then placed in a greenhouse at approximately 21° C. and a relative atmospheric humidity of approximately 90%. The test is evaluated 10 days after the inoculation.

Venturia inaequalis = experiment: in vivo preventive test on Venturia test (apples); settings: 10 days after inoculation
Description: The plants are then placed in a greenhouse at approximately 21° C. and a relative atmospheric humidity of approximately 90%.
The test is evaluated 10 days after the inoculation.

Phakopsora pachyrhizi = experiment: in vivo preventive test on Phakopsora test (soybeans); settings: 7 days after inoculation
Description: After the spray coating has dried on, the plants are inoculated with an aqueous spore suspension of the causal agent of soybean rust (Phakopsora pachyrhizi) and stay for 24 h without light in an incubation cabinet at approximately 24° C. and a relative atmospheric humidity of 95%. The plants remain in the incubation cabinet at approximately 24° C. and a relative atmospheric humidity of approximately 80% and a day/night interval of 12 h.
as §2

Puccinia triticina = experiment: in vivo preventive Puccinia triticina test (wheat); settings: 8 days after inoculation
Description: After the spray coating has been dried, the plants are sprayed with a spore suspension of Puccinia triticina.
as §1

[2] = tested on: Fusarium nivale (var. majus); experiment: in vivo preventive Fusarium nivale (var. majus) test (wheat); settings: 5 days after inoculation
Description: After the spray coating has been dried, the plants are slightly injured by using a sandblast and afterwards they are sprayed with a conidia suspension of Fusarium nivale (var. majus). The plants are placed in the greenhouse under a translucent incubation cabinet at a temperature of approximately 10° C. and a relative atmospheric humidity of approximately 100%.
The test is evaluated 5 days after the inoculation.

Pyrenophora teres = experiment: in vivo preventive Pyrenophora teres test (barley); settings: 8 days after inoculation
Description: After the spray coating has been dried, the plants are sprayed with a spore suspension of Pyrenophora teres.
as §1

Botrytis cinerea = experiment: in vivo preventive test on Botrytis test (beans); settings: size of lesions 2 days after inoculation
Description: Solvent: 24.5 parts by weight of acetone • 24.5 parts by weight of dimethylacetamide Emulsifier: 1 part by weight of alkylaryl polyglycol ether
After the spray coating has dried on, 2 small pieces of agar covered with growth of Botrytis cinerea are placed on each leaf. The inoculated plants are placed in a darkened chamber at 20° C. and a relative atmospheric humidity of 100%.
2 days after the inoculation, the size of the lesions on the leaves is evaluated.

| Compound | Efficacy in % found (Alternaria solani; 0.5 ppm a.i.) | Efficacy in % found ([1]; 25 ppm a.i.) | Efficacy in % found (Leptosphaeria nodorum; 25 ppm a.i.) | Efficacy in % found (Leptosphaeria nodorum; 50 ppm a.i.) | Efficacy in % found (Leptosphaeria nodorum; 100 ppm a.i.) | Efficacy in % found (Fusarium graminearum; 50 ppm a.i.) | Efficacy in % found (Phakopsora pachyrhizi; 0.25 ppm a.i.) | Efficacy in % found (Phakopsora pachyrhizi; 0.5 ppm a.i.) | Efficacy in % found (Puccinia triticina; 25 ppm a.i.) | Efficacy in % found (Septoria tritici; 25 ppm a.i.) | Efficacy in % found (Septoria tritici; 50 ppm a.i.) | Efficacy in % found (Puccinia triticina; 50 ppm a.i.) | Efficacy in % found (Alternaria solani; 1 ppm a.i.) | also measured |
| --- | --- | --- | --- | --- | --- | --- | --- | --- | --- | --- | --- | --- | --- | --- |
| CCC1CC(C)(C)c2cccc(NC(=O)c3cccnc3C(F)F)c21 (centres unmarked) [(I-3), 2-(difluoromethyl)-N-(3-ethyl-1,1-dimethyl-2,3-dihydro-1H-inden-4-yl)nicotinamide] | 23% | 0% | 0% | 14% | 43% | – | – | – | – | – | – | – | – | Efficacy in % found (Fusarium graminearum; 25 ppm a.i.): 0%; Efficacy in % found (Septoria tritici; 100 ppm a.i.): 83%; Efficacy in % found (Sphaerotheca fuliginea; 0.5 ppm a.i.): 0%; Efficacy in % found (Uromyces appendiculatus; 0.25 ppm a.i.): 90%; Efficacy in % found (Venturia inaequalis; 1 ppm a.i.): 11% |
| CCCC1CC(C)(C)c2cccc(NC(=O)c3cccnc3C(F)F)c21 (centres unmarked) [(I-5), 2-(difluoromethyl)-N-(1,1-dimethyl-3-propyl-2,3-dihydro-1H-inden-4-yl)nicotinamide] | – | – | – | 38% | 38% | 29% | 43% and 60% | 78% and 89% | – | – | – | – | – | Efficacy in % found (Fusarium graminearum; 25 ppm a.i.): 0%; Efficacy in % found (Puccinia triticina; 12.5 ppm a.i.): 30%; Efficacy in % found (Uromyces appendiculatus; 0.5 ppm a.i.): 95% |
| Fc1ccc([C@]2(Cn3cncn3)O[C@H]2c2ccccc2Cl)cc1 (racemic) [1.12, epoxiconazole] | – | 30% | 43% | 57% | – | 0% | – | – | 40% | 0% | 63% and 33% | – | – | Efficacy in % found ([1]; 12.5 ppm a.i.): 14%; Efficacy in % found ([2]; 12.5 ppm a.i.): 13% |
| propiconazole [1.40] | – | 43% and 80% | – | – | 25% | – | – | – | 25% | 0% | 0% | 0% and 10% | – | Efficacy in % found (Pyrenophora teres; 25 ppm a.i.): 22%; Efficacy in % found (Pyrenophora teres; 50 ppm a.i.): 13% and 25%; Efficacy in % found (Pyrenophora teres; 100 ppm a.i.): 25%; Efficacy in % found (Septoria tritici; 100 ppm a.i.): 38% |
| cyproconazole [1.5] | – | – | – | 0% | – | – | – | – | 70% | – | 50% | 80% | – | Efficacy in % found (Leptosphaeria nodorum; 12.5 ppm a.i.): 0%; Efficacy in % found (Pyrenophora teres; 25 ppm a.i.): 25% and 22%; Efficacy in % found (Pyrenophora teres; 50 ppm a.i.): 25%; Efficacy in % found (Pyrenophora teres; 100 ppm a.i.): 0%; Efficacy in % found (Septoria tritici; 100 ppm a.i.): 17% |
| CCC[C@@H]1CC(C)(C)c2cccc(NC(=O)c3cccnc3C(F)F)c21 [(I-6), 2-(difluoromethyl)-N-[(3R)-1,1-dimethyl-3-propyl-2,3-dihydro-1H-inden-4-yl]nicotinamide] | – | 40% | – | 14% | – | – | 60% and 75% | – | – | – | 75% | – | 27% | Efficacy in % found (Alternaria solani; 0.25 ppm a.i.): 16% |
| OC(Cc1ccccc1Cl)(Cn1nc[nH]c1=S)C1(Cl)CC1 (centres unmarked) [1.41, prothioconazole] | 15% and 8% | – | – | – | – | – | 0% | 0% | – | – | – | – | 15% | Efficacy in % found (Uromyces appendiculatus; 0.25 ppm a.i.): 0%; Efficacy in % found (Uromyces appendiculatus; 1 ppm a.i.): 0%; Efficacy in % found (Venturia inaequalis; 1 ppm a.i.): 0% |
| CC(C)(C)C(O)(CCc1ccc(Cl)cc1)Cn1cncn1 (centres unmarked) [1.47, tebuconazole] | 8% and 0% | – | – | – | – | – | 0% | 0% | – | – | – | – | – | Efficacy in % found (Alternaria solani; 0.25 ppm a.i.): 0%; Efficacy in % found (Uromyces appendiculatus; 0.25 ppm a.i.): 0%; Efficacy in % found (Uromyces appendiculatus; 0.5 ppm a.i.): 0%; Efficacy in % found (Uromyces appendiculatus; 1 ppm a.i.): 0% |
| CC[C@@H]1CC(C)(C)c2cccc(NC(=O)c3cccnc3C(F)F)c21 [(I-4), 2-(difluoromethyl)-N-[(3R)-3-ethyl-1,1-dimethyl-2,3-dihydro-1H-inden-4-yl]nicotinamide] | – | – | – | 0% | – | – | 33% and 65% | 75% | – | 75% | 75% | – | 40% | Efficacy in % found ([1]; 50 ppm a.i.): 0%; Efficacy in % found ([2]; 12.5 ppm a.i.): 13%; Efficacy in % found ([2]; 25 ppm a.i.): 13%; Efficacy in % found (Venturia inaequalis; 0.5 ppm a.i.): 16% |
| CC1(C)CCC(Cc2ccc(Cl)cc2)C1(O)Cn1cncn1 (centres unmarked) [1.30, metconazole] | – | 93% and 80% | 0% | – | – | 14% | – | – | 20% | 17% | 33% | 10% | – | Efficacy in % found ([1]; 50 ppm a.i.): 93%; Efficacy in % found (Puccinia triticina; 12.5 ppm a.i.): 0% |
| OC(Cn1cncn1)(c1ccc(F)cc1)c1ccccc1F (centres unmarked) [1.22, flutriafol] | 0% | – | – | – | – | – | 0% | – | – | – | – | – | 0% | Efficacy in % found (Alternaria solani; 0.25 ppm a.i.): 0%; Efficacy in % found (Phakopsora pachyrhizi; 1 ppm a.i.): 0%; Efficacy in % found (Sphaerotheca fuliginea; 1 ppm a.i.): 24%; Efficacy in % found (Venturia inaequalis; 0.25 ppm a.i.): 0%; Efficacy in % found (Venturia inaequalis; 0.5 ppm a.i.): 0%; Efficacy in % found (Venturia inaequalis; 1 ppm a.i.): 8%; Efficacy in % found (Botrytis cinerea; 0.25 ppm a.i.): 0%; Efficacy in % found (Botrytis cinerea; 0.5 ppm a.i.): 15%; Efficacy in % found (Botrytis cinerea; 1 ppm a.i.): 30% |
| difenoconazole [1.7] | – | – | 29% | 29% and 43% | 13% | 0% | – | – | 20% | – | 0% | 50% | – | Efficacy in % found ([1]; 50 ppm a.i.): 60% and 71% and 40%; Efficacy in % found (Fusarium graminearum; 100 ppm a.i.): 0%; Efficacy in % found ([2]; 12.5 ppm a.i.): 0%; Efficacy in % found (Puccinia triticina; 12.5 ppm a.i.): 0%; Efficacy in % found (Pyrenophora teres; 12.5 ppm a.i.): 22%; Efficacy in % found (Pyrenophora teres; 50 ppm a.i.): 13% |
